Measured values: the supplement of paper PMC4932681

Assays:
Assay in all cases: viability inhibition at highest dose (% inhibition); higher = more growth inhibition
[1] = system: BT-474 Tam2; conditions: 4-OH-tamoxifen in medium 1 µM; 72 h
Protocol: (§1)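 Percent inhibition of viability (CellTiter-Glo, 72 h) at the highest tested concentration (D5), normalised to DMSO (0%) and 100 µM benzethonium chloride (100%). Resistant lines and the 'in 1µM tamoxifen' arms were tested in 1 µM 4-OH-tamoxifen.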

[2] = system: MCF-7 Tam1; conditions: 4-OH-tamoxifen in medium 1 µM; 72 h
Protocol: as §1

[3] = system: MCF-7; conditions: 72 h
Protocol: as §1

[4] = system: T-47D; conditions: 72 h
Protocol: as §1

[5] = system: T-47D Tam2; conditions: 4-OH-tamoxifen in medium 1 µM; 72 h
Protocol: as §1

[6] = system: ZR-75-1 Tam2; conditions: 4-OH-tamoxifen in medium 1 µM; 72 h
Protocol: as §1

[7] = system: BT-474; conditions: 72 h
Protocol: as §1

[8] = system: T-47D Tam1; conditions: 4-OH-tamoxifen in medium 1 µM; 72 h
Protocol: as §1

[9] = system: ZR-75-1; conditions: 72 h
Protocol: as §1

[10] = system: ZR-75-1 Tam1; conditions: 4-OH-tamoxifen in medium 1 µM; 72 h
Protocol: as §1

[11] = system: BT-474 Tam1; conditions: 4-OH-tamoxifen in medium 1 µM; 72 h
Protocol: as §1

SMILES | viability inhibition at highest dose [1] | viability inhibition at highest dose [2] | viability inhibition at highest dose ([3]; 4-OH-tamoxifen in medium 0 µM) | viability inhibition at highest dose ([3]; 4-OH-tamoxifen in medium 1 µM) | viability inhibition at highest dose ([4]; 4-OH-tamoxifen in medium 0 µM) | viability inhibition at highest dose ([4]; 4-OH-tamoxifen in medium 1 µM) | viability inhibition at highest dose [5] | viability inhibition at highest dose [6] | viability inhibition at highest dose ([7]; 4-OH-tamoxifen in medium 0 µM) | viability inhibition at highest dose ([7]; 4-OH-tamoxifen in medium 1 µM) | viability inhibition at highest dose [8] | viability inhibition at highest dose ([9]; 4-OH-tamoxifen in medium 0 µM) | viability inhibition at highest dose ([9]; 4-OH-tamoxifen in medium 1 µM) | viability inhibition at highest dose [10] | viability inhibition at highest dose [11]
CC(C)(C)NC(=O)[C@H]1CC[C@H]2[C@@H]3CC[C@H]4NC(=O)C=C[C@]4(C)[C@H]3CC[C@]12C [Finasteride] (drug 10000 nM) | 19.1 | 3.61 | -0.974 | 6.29 | -5.04 | -8.61 | 18 | 4.5 | -6.68 | -0.99 | 14.8 | -8.28 | 7.55 | -2.42 | 27.2
CCC1=C[C@@H]2CN(C1)Cc1c([nH]c3ccccc13)[C@@](C(=O)OC)(c1cc3c(cc1OC)N(C)[C@H]1[C@@](O)(C(=O)OC)[C@H](OC(C)=O)[C@]4(CC)C=CCN5CC[C@]31[C@@H]54)C2 [Vinorelbine (tartrate)] (drug 10000 nM) | 93.8 | 6.83 | 49.1 | 55.8 | 6.97 | 31.1 | 63 | 29.9 | 46.9 | 94 | 59.6 | 26.2 | 36.3 | 29.4 | 95.6
CC(C)(C)c1cc(NC(=O)Nc2ccc(-c3cn4c(n3)sc3cc(OCCN5CCOCC5)ccc34)cc2)no1 [Quizartinib (AC220)] (drug 1000 nM) | -5.01 | 3.09 | -2.81 | 6.24 | 11 | 9.31 | 15.8 | 5.08 | -0.626 | -13.2 | 11.5 | -17 | 8.56 | -2.41 | -3.77
CC(=O)OC[C@H]1O[C@@H]([S-])[C@H](OC(C)=O)[C@@H](OC(C)=O)[C@@H]1OC(C)=O.CCP(CC)CC.[Au+] [Auranofin] (drug 2500 nM) | 66.5 | 22.4 | 91.7 | 33.9 | 31 | 36 | 59.3 | 12.5 | 58 | 97.5 | 54.3 | 15.9 | 25.5 | 20.7 | 96
N.N.[Cl][Pt][Cl] [Cisplatin] (drug 10000 nM) | 2.59 | 3.44 | -20.9 | 0.697 | -16.1 | -8.72 | 8.3 | -1.7 | -3.72 | -4.53 | -3.02 | -8.66 | -5.04 | 3.43 | -9.25
Nc1ccn([C@@H]2O[C@H](CO)[C@@H](O)C2(F)F)c(=O)n1 [Gemcitabine] (drug 1000 nM) | -10.3 | -2.89 | 25.8 | 4.61 | 32.3 | 7.44 | 21.5 | 11.2 | -11.7 | -4.83 | 25.9 | 16.9 | 19.4 | 9.23 | 1.24
O=C(O)C(=O)O.[NH-][C@@H]1CCCC[C@H]1[NH-].[Pt+2] [Oxaliplatin] (drug 10000 nM) | 1.63 | -5.32 | 4.06 | 3.34 | -7.69 | -13.3 | 5.52 | 5.48 | -9.5 | -21.1 | 1.11 | 2.13 | -0.0598 | 4.08 | -7.39
Cc1cc(Nc2cc(CN3CCOCC3)c3nc(C)c(Cc4ccc(Cl)cc4F)n3n2)n[nH]1 (drug 10000 nM) | 96.4 | 47.8 | 66.7 | 68 | 21.2 | 24.4 | 46.2 | 16.8 | 5.76 | 66.4 | 45.6 | -23.2 | 0.926 | -2.02 | 96.7
COC1=CC(c2cc3ccccc3[nH]2)=N/C1=C\c1[nH]c(C)cc1C [Obatoclax (GX15-070)] (drug 10000 nM) | 86.7 | 51.1 | 45.6 | 75.8 | 47 | 44.1 | 36.8 | 50.8 | 68.9 | 18.9 | 67.3 | 32.5 | 31.2 | 23.7 | 36.3
O=C1c2c(O)ccc(O)c2C(=O)c2c(NCCNCCO)ccc(NCCNCCO)c21 [Mitoxantrone] (drug 1000 nM) | -13.6 | 1.72 | -3.19 | 7.73 | 29.5 | 2.9 | 21.5 | 24.9 | 3.96 | -1.95 | 47.8 | 29.7 | 20.2 | 21.3 | -23.8
CC1=C2C[C@H]3[C@@H](CC=C4C[C@@H](O)CC[C@@]43C)[C@@H]2CC[C@]12O[C@@H]1C[C@H](C)CN[C@H]1[C@H]2C [Cyclopamine] (drug 10000 nM) | -2.39 | -8.03 | -20.5 | -1.78 | -17.5 | -14 | 1.98 | -6.35 | -4.32 | -7.93 | -2.15 | -9.96 | -4.21 | -2.07 | 0.632
